# Source: the Kinase Knowledgebase extract (Sharma et al. 2016)
# Biological target: CDK2 (UniProt P24941)
# Test: Enzyme Assay
row,IC50,Structure (SMILES)
1,0.75 µM,Cc1c(C(=O)N2CCCCC2)c[nH]c1/C=C1\C(=O)Nc2cccc(-c3ccncc3)c21
2,0.02 µM,Cc1c(C(=O)N2CCCCC2)c[nH]c1/C=C1\C(=O)Nc2cccc(C3CCNCC3)c21
3,0.009 µM,O=C1Nc2cccc(C3CCNCC3)c2/C1=C/c1[nH]cc2c1CCOC2=O
4,0.26 µM,CN1CCc2c(c[nH]c2/C=C2\C(=O)Nc3cccc(C4CCNCC4)c32)C1=O
5,0.08 µM,O=C1Nc2cccc(-c3ccncc3)c2/C1=C/c1[nH]cc2c1CCOC2=O
6,0.01 µM,Cc1nc[nH]c1/C=C1\C(=O)Nc2cccc(C3CCNCC3)c21
7,0.03 µM,Cc1nc[nH]c1/C=C1\C(=O)Nc2cccc(-c3ccncc3)c21
8,0.06 µM,O=C1Nc2cccc(C3CCNCC3)c2/C1=C/c1[nH]cc2c1CCNC2=O
9,0.02 µM,Cc1c(C(=O)N2CCOCC2)c[nH]c1/C=C1\C(=O)Nc2cccc(C3CCNCC3)c21
10,1.96 µM,O=C1Nc2cccc(C3CCNCC3)c2/C1=C/c1cc2cc(OCCN3CCOCC3)ccc2[nH]1

# Biological target: EGFR (UniProt P00533)
# Sequence (P00533 whole entry, looked up): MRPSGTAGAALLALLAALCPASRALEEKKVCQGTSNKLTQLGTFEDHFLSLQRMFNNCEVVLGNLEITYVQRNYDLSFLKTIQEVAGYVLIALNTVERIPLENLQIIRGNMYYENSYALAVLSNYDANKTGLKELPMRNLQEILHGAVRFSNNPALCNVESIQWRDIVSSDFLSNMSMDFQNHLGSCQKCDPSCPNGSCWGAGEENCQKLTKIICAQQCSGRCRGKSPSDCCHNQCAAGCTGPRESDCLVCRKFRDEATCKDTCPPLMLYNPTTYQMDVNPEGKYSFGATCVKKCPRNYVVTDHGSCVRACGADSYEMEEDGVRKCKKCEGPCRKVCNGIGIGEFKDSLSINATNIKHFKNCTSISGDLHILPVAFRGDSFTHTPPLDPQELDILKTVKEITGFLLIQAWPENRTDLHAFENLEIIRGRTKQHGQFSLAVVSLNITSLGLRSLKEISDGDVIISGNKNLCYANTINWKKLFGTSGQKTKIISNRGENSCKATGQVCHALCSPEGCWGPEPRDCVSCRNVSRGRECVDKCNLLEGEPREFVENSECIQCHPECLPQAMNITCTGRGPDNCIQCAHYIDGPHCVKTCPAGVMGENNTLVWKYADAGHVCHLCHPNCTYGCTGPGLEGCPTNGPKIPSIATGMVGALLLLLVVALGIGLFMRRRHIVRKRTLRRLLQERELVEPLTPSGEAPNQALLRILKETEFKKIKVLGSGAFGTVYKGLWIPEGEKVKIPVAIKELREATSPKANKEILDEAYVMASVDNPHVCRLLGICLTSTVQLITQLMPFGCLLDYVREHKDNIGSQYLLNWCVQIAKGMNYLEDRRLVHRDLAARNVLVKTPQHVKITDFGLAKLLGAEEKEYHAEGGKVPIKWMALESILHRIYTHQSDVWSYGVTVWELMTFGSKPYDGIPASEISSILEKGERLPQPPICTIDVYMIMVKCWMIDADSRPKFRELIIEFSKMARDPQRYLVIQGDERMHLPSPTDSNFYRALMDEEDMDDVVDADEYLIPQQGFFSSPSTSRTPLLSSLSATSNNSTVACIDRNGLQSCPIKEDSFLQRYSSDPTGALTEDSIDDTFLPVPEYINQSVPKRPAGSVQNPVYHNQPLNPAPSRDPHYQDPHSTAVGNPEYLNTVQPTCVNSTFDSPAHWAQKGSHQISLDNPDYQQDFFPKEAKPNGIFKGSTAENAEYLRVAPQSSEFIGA
# Test: not given
row,IC50,Structure (SMILES)
1,> 20 µM,Cc1[nH]c(/C=C2\C(=O)Nc3cccc(-c4ccncc4)c32)c(C)c1CCC(=O)O
2,> 20 µM,Cc1[nH]c(/C=C2\C(=O)Nc3cccc(-c4ccncc4)c32)c(C)c1C(=O)N1CCN(C)CC1
3,> 20 µM,CCOC(=O)c1c(C)[nH]c(/C=C2\C(=O)Nc3cccc(-c4cccnc4)c32)c1CCCN1CCN(C)CC1
4,> 20 µM,Cc1c(C(=O)N2CCCCC2)c[nH]c1/C=C1\C(=O)Nc2cccc(-c3ccncc3)c21
5,> 20 µM,CCOC(=O)c1c(C)[nH]c(/C=C2\C(=O)Nc3cccc(-c4cncnc4)c32)c1CCCN1CCN(C)CC1
6,> 20 µM,Cc1[nH]c(/C=C2\C(=O)Nc3cccc(-c4cncnc4)c32)c(C)c1C(=O)N1CCN(C)CC1
7,> 20 µM,Cc1[nH]c(/C=C2\C(=O)Nc3cccc(-c4ccccn4)c32)c(C)c1C(=O)N1CCN(C)CC1
8,> 20 µM,Cc1[nH]c(/C=C2\C(=O)Nc3cccc(-c4cccnc4)c32)c(C)c1C(=O)N1CCN(C)CC1
9,> 20 µM,Cc1[nH]c(/C=C2\C(=O)Nc3cccc(-c4cncc(C(=O)O)c4)c32)c(C)c1C(=O)N1CCN(C)CC1
10,> 20 µM,Cc1[nH]c(/C=C2\C(=O)Nc3cccc(-c4ccc(N)nc4)c32)c(C)c1C(=O)N1CCN(C)CC1
11,> 20 µM,CCOC(=O)c1c(C)[nH]c(/C=C2\C(=O)Nc3cccc(-c4ccc(N)nc4)c32)c1CCCN1CCN(C)CC1
12,> 20 µM,CCOC(=O)c1c(C)[nH]c(/C=C2\C(=O)Nc3cccc(-c4ccccn4)c32)c1CCCN1CCN(C)CC1
13,> 20 µM,Cc1[nH]c(/C=C2\C(=O)Nc3cccc(-c4ccncc4)c32)c(C)c1CC(=O)O
14,> 20 µM,Cc1[nH]c(/C=C2\C(=O)Nc3cccc(-c4nccs4)c32)c(C)c1C(=O)N1CCN(C)CC1
15,> 20 µM,CCOC(=O)c1c(C)[nH]c(/C=C2\C(=O)Nc3cccc(-c4cncc(C(=O)O)c4)c32)c1CCCN1CCN(C)CC1
16,> 20 µM,CCN(CC)CCNC(=O)c1c(C)[nH]c(/C=C2\C(=O)Nc3cccc(-c4ccncc4)c32)c1C
17,> 20 µM,Cc1cc(C(=O)N2CCN(C)CC2)[nH]c1/C=C1\C(=O)Nc2cccc(C3CCNCC3)c21
18,> 20 µM,CCOC(=O)c1c(C)[nH]c(/C=C2\C(=O)Nc3cccc(-c4nccs4)c32)c1CCCN1CCN(C)CC1

# The next lines start with the molecule.
row,Structure (SMILES),IC50
1,CCOC(=O)c1[nH]c(/C=C2\C(=O)Nc3cccc(C4CCNCC4)c32)c(CCC(=O)O)c1C,> 20 µM
2,O=C1Nc2cccc(C3CCNCC3)c2/C1=C/c1[nH]cc(C(=O)O)c1CCO,> 20 µM
3,O=C1Nc2cccc(-c3ccncc3)c2/C1=C/c1cc2ccccc2[nH]1,16.3 µM
4,Cc1c(C(=O)N2CCCCC2)c[nH]c1/C=C1\C(=O)Nc2cccc(C3CCNCC3)c21,> 20 µM
5,Cc1cc(C(=O)O)[nH]c1/C=C1\C(=O)Nc2cccc(-c3ccncc3)c21,> 20 µM
6,Cc1cc(C(=O)O)c(/C=C2\C(=O)Nc3cccc(-c4ccncc4)c32)[nH]1,> 20 µM
7,Cc1[nH]c(/C=C2\C(=O)Nc3cccc(C4CCNCC4)c32)c(-c2ccccc2)c1C(=O)Nc1ccncc1,> 20 µM
8,O=C1Nc2cccc(-c3ccncc3)c2/C1=C/c1[nH]c2c(c1CCCN1CCOCC1)CCCC2,> 20 µM
9,O=C(O)CCc1c(/C=C2\C(=O)Nc3cccc(-c4ccncc4)c32)[nH]c2c1CCCC2,> 20 µM
10,Cc1cc(C(=O)O)c(/C=C2\C(=O)Nc3cccc(C4CCNCC4)c32)[nH]1,> 20 µM
11,Cc1[nH]c(/C=C2\C(=O)Nc3cccc(C4CCNCC4)c32)c(C)c1CC(=O)O,> 20 µM
12,CCc1cc(CCC(=O)O)c(/C=C2\C(=O)Nc3cccc(C4CCNCC4)c32)[nH]1,> 20 µM
13,Cc1ccc(/C=C2\C(=O)Nc3cccc(C4CCNCC4)c32)s1,> 20 µM
14,CCOC(=O)c1c(C)[nH]c(/C=C2\C(=O)Nc3cccc(-c4ccncc4)c32)c1CCC(=O)O,> 20 µM
15,Cc1[nH]c(/C=C2\C(=O)Nc3cccc(C4CCNCC4)c32)c(C)c1CCC(=O)O,> 20 µM
16,O=C1Nc2cccc(C3CCNCC3)c2/C1=C/c1[nH]cc2c1CCOC2=O,> 20 µM
17,CCc1cc(CCC(=O)O)c(/C=C2\C(=O)Nc3cccc(-c4ccncc4)c32)[nH]1,> 20 µM

row,Structure (SMILES),IC50
1,Cc1cc(C)c(/C=C2\C(=O)Nc3cccc(-c4ccncc4)c32)[nH]1,> 20 µM
2,Cc1cc(CCC(=O)O)c(/C=C2\C(=O)Nc3cccc(-c4ccncc4)c32)[nH]1,> 20 µM
3,O=C1Nc2cccc(-c3ccncc3)c2/C1=C/c1[nH]cc2c1CCOC2=O,> 20 µM
4,O=C1Nc2cccc(C3CCNCC3)c2/C1=C/c1ccc(N2CCOCC2)cc1,> 20 µM
5,O=C1Nc2cccc(-c3ccncc3)c2/C1=C/c1cc2cc(OCCN3CCOCC3)ccc2[nH]1,17.9 µM
6,CCN(CC)CCNC(=O)c1c(C)[nH]c(/C=C2\C(=O)Nc3cccc(C4CCNCC4)c32)c1C,> 20 µM
7,Cc1nc[nH]c1/C=C1\C(=O)Nc2cccc(C3CCNCC3)c21,> 20 µM
8,O=C1Nc2cccc(C3CCNCC3)c2/C1=C/c1cc2c([nH]1)CCCC2,> 20 µM
9,CCN(CC)CCNC(=O)c1c(C)[nH]c(/C=C2\C(=O)Nc3cccc(-c4cncc(C(=O)O)c4)c32)c1C,> 20 µM
10,Cc1nc[nH]c1/C=C1\C(=O)Nc2cccc(-c3ccncc3)c21,> 20 µM
11,O=C1Nc2cccc(C3CCNCC3)c2/C1=C/c1cc2ccccc2[nH]1,> 20 µM
12,CCOC(=O)c1[nH]c(/C=C2\C(=O)Nc3cccc(C4CCNCC4)c32)c2c1CCCC2,14.7 µM
13,Cc1c(C(=O)N2CCOCC2)c[nH]c1/C=C1\C(=O)Nc2cccc(C3CCNCC3)c21,> 20 µM
14,O=C1Nc2cccc(C3CCNCC3)c2/C1=C/c1[nH]c2c(c1CCCN1CCOCC1)CCCC2,> 20 µM
15,O=C1Nc2cccc(C3CCNCC3)c2/C1=C/c1cc2cc(OCCN3CCOCC3)ccc2[nH]1,19.1 µM
16,Cc1cc(C(=O)O)[nH]c1/C=C1\C(=O)Nc2cccc(C3CCNCC3)c21,> 20 µM
